Counter-ions that a name gives are not always drawn.
Legend:
IRAK4 = target: T1, IRAK4 (Homo sapiens, UniProt Q9NWZ3); assay: IRAK-4 activity inhibition assay (Caliper); format: biochemical; conditions: 3.5 nM IRAK4, 37 μM ATP, 1.5 μM Peptide 8
T1 construct: purchased CARNA Bioscience 09-145
T1 sequence (Q9NWZ3 1-460): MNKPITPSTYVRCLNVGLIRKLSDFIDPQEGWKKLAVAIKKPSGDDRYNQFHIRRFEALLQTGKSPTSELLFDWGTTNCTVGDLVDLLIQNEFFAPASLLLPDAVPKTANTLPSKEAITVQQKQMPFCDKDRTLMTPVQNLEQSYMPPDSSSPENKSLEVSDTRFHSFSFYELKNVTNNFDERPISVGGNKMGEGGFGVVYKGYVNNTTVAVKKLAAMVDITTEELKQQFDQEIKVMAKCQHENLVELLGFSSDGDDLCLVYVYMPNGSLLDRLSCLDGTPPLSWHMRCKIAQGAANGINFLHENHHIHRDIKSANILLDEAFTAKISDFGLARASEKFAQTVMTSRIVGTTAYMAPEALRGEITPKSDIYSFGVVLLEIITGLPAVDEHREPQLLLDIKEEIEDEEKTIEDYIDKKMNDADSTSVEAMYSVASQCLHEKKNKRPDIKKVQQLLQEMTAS
Procedure: A 1× kinase base buffer was prepared from 50 mM HEPES, pH 7.5 and 0.0015% Brij-35. A stop buffer was prepared from 100 mM HEPES, pH 7.5, 0.015% Brij-35, 0.2% Coating Reagent #3, and 50 mM EDTA.
Test compound was diluted to 50× of the final desired highest inhibitor concentration in reaction by 100% DMSO. 100 ul of this compound dilution was transferred to a well in a 96-well plate.
Test compound was serially diluted by transferring 30 μl to 60 μl of 100% DMSO in the next well and so forth for a total of 10 concentrations. 100 μl of 100% DMSO was added to two empty wells for no compound control and no enzyme control in the same 96-well plate.
A new 96-well plate was marked as intermediate plate. 5 μl of compound serial dilution was transferred from source plate to the corresponding wells of the intermediate plate. 45 μl of 1× kinase base buffer (KB buffer) was added to each well of the intermediate plate. The intermediate plate was placed for 10 min on a shaker.
5 μl of each well was transferred from the 96-well intermediate plate to a 384-well plate in duplicates. For example, A1 of the 96-well plate is transferred to A1 and A2 of the 384-well plate. A2 of the 96-well plate is transferred to A3 and A4 of the 384-well plate, and so on.
IRAK4 and DTT in 1× kinase base buffer was added. The 2.5× enzyme mix contained 8.8 nM IRAK4 and 5 mM DTT.
Peptide 8, ATP, MgCl2 and MnCl2 were added in the 1× kinase base buffer. The 2.5× peptide mix contained 3.75 μM peptide 8, 92.5 μM ATP, 12.5 mM MgCl2 and 2.5 mM MnCl2.
Assay plate already contained 5 μl of compound in 10% DMSO. Added 10 μl of 2.5× enzyme solution to each well of the 384-well assay plate, except no enzyme control wells. The final concentration of IRAK4 in reaction was 3.5 nM. Added 10 μl of 1× kinase base buffer to no enzyme control wells in the assay plate. Incubated at room temperature for 10 min.
Added 10 μl of 2.5× peptide solution to each well of the 384-well assay plate. The final concentration of Peptide 8 and ATP was 1.5 μM and 37 μM, respectively. Incubated at 28° C. for 40 minutes. Added 25 μl of stop buffer to stop reaction. Collected data on Caliper.
Copied conversion % data from Caliper program. Converted conversion % values to percent inhibition values. Percent inhibition=(max−conversion %)/(max−min)*100, where “max” means the conversion % of DMSO control and “min” means the conversion % of no enzyme control.

THP-1 cells [1] = assay: LPS-induced cytokine production assay, TNFα; format: cell-based; conditions: Homo sapiens, 300 ng/mL LPS, 5 hours, read-out: TNF (5 h)
Procedure: (§1) Provided compounds were also assayed in an LPS (Lipopolysacharide) or R848 (TLR-7 agonist) induced cytokine (e.g. TNFα and IL8) production assay in THP-1 cells, human peripheral blood mononuclear cells (hPBMC), and whole blood. The exemplary protocol for this assay in THP-1 cells was as follows below.
(§2) THP-1 cells from ATCC (TIB-202) were cultured in RPMI Medium 1640 (Invitrogen, Cat No. A10491-01), 10% fetal bovine serum (Invitrogen, Cat No. 10099141, Lot No. 8172882) containing 100 U/mL Penicillin, 100 μg/mL streptomycin (Invitrogen, Cat No. 15140-122), and 50 uM 2-Mercaptoethanol (Invitrogen, Cat No. 21985023). LPS-EK ultra pure (Invivogen, Cat No. tlrl-peklps) was used to induce IL8 and TNFα production, that is detected in the cell culture supernatant by IL8 HTRF kit (Cisbio, Cat No. 62IL8PEB) and TNFα HTRF kit (Cisbio, Cat No. 62TNFPEB), as per manufacturer instructions. Cells were cultured in 96 well assay plates at 100,000 cells per well, and compounds diluted in final 0.3% DMSO were pre-incubated with cells for 1 hour prior to stimulation with 300 ng/mL LPS. Cytokine production in cell supernatant was measured at 5 hours for TNFα and IL8 production, and for 16 hours for IL8 production and assessment of cell viability.

THP-1 cells [2] = assay: LPS-induced cytokine production assay, IL8; format: cell-based; conditions: Homo sapiens, 300 ng/mL LPS, 16 hours, read-out: IL-8 (16 h)
Procedure: as §1, §2

Row | Structure (SMILES) | IC50 (IRAK4) | IC50 (THP-1 cells [1]) | IC50 (THP-1 cells [2])
1 | CN(C)[C@H]1CC[C@H](Nc2ncnc3sc4cccc(CO)c4c23)CC1 [I-23, (4-(((1r,4r)-4-(dimethylamino)cyclohexyl)amino)benzo[4,5]thieno[2,3-d]pyrimidin-5-yl)methanol] | ≥ 10000 nM | – | –
2 | OCCc1ccc2sc3ncnc(N[C@H]4CC[C@H](N5CCOCC5)CC4)c3c2c1 [I-15, 2-(4-(((1r,4r)-4-morpholinocyclohexyl)amino)benzo[4,5]thieno[2,3-d]pyrimidin-6-yl)ethanol] | 100 to 1000 nM | – | –
3 | CCOC(=O)c1cccc2sc3ncnc(N[C@H]4CC[C@H](N(C)C)CC4)c3c12 [I-22, ethyl 4-(((1r,4r)-4-(dimethylamino)cyclohexyl)amino)benzo[4,5]thieno[2,3-d]pyrimidine-5-carboxylate] | ≥ 10000 nM | – | –
4 | CN(C)[C@H]1CC[C@H](Nc2ncnc3sc4ccc(CO)cc4c23)CC1 [I-7, (4-(((1r,4r)-4-(dimethylamino)cyclohexyl)amino)benzo[4,5]thieno[2,3-d]pyrimidin-6-yl)methanol] | 100 to 1000 nM | ≥ 1000 nM | ≤ 1000 nM
5 | CCOC(=O)c1ccc2sc3ncnc(N[C@H]4CC[C@H](N(C)C)CC4)c3c2c1 [I-5, ethyl 4-(((1r,4r)-4-(dimethylamino)cyclohexyl)amino)benzo[4,5]thieno[2,3-d]pyrimidine-6-carboxylate] | ≤ 100 nM | ≤ 1000 nM | ≤ 1000 nM
6 | CN(CC(=O)N1CCCC1)[C@H]1CC[C@H](Nc2ncnc3sc4ccccc4c23)CC1 [I-3, 2-(((1r,4r)-4-(benzo[4,5]thieno[2,3-d]pyrimidin-4-ylamino)cyclohexyl)(methyl)amino)-1-(pyrrolidin-1-yl)ethanone] | ≤ 100 nM | ≥ 1000 nM | ≤ 1000 nM
7 | NC(=O)c1ccc2sc3ncnc(N[C@H]4CC[C@H](N5CCOCC5)CC4)c3c2c1 [I-1, 4-(((1r,4r)-4-morpholinocyclohexyl)amino)benzo[4,5]thieno[2,3-d]pyrimidine-6-carboxamide] | ≤ 100 nM | ≤ 1000 nM | ≤ 1000 nM
8 | c1ccc2c(c1)sc1ncnc(O[C@H]3CC[C@H](N4CCOCC4)CC3)c12 [I-16, 4-((1r,4r)-4-(benzo[4,5]thieno[2,3-d]pyrimidin-4-yloxy)cyclohexyl)morpholine] | 100 to 1000 nM | – | –
9 | CN(C)[C@H]1CC[C@H](Nc2ncnc3sc4ccccc4c23)CC1 [I-2, (1r,4r)-N1-(benzo[4,5]thieno[2,3-d]pyrimidin-4-yl)-N4,N4-dimethylcyclohexane-1,4-diamine] | ≤ 100 nM | ≤ 1000 nM | ≤ 1000 nM
10 | OCc1ccc2sc3ncnc(N[C@H]4CC[C@H](N5CCOCC5)CC4)c3c2c1 [I-10, (4-(((1r,4r)-4-morpholinocyclohexyl)amino)benzo[4,5]thieno[2,3-d]pyrimidin-6-yl)methanol] | 100 to 1000 nM | – | –
11 | OCCc1ccc2sc3ncnc(O[C@H]4CC[C@H](N5CCOCC5)CC4)c3c2c1 [I-13, 2-(4-(((1r,4r)-4-morpholinocyclohexyl)oxy)benzo[4,5]thieno[2,3-d]pyrimidin-6-yl)ethanol] | 100 to 1000 nM | – | –

The next lines start with the values.

Row | IC50 (IRAK4) | IC50 (THP-1 cells [1]) | IC50 (THP-1 cells [2]) | Structure (SMILES)
12 | 1000 to 10000 nM | – | – | CCOC(=O)Cc1ccc2sc3ncnc(N[C@H]4CC[C@H](N5CCOCC5)CC4)c3c2c1 [I-21, Ethyl 2-(4-(((1r,4r)-4-morpholinocyclohexyl)amino)benzo[4,5]thieno[2,3-d]pyrimidin-6-yl)acetate]
13 | 1000 to 10000 nM | – | – | CN(C)C(=O)c1ccc2sc3ncnc(N[C@H]4CC[C@H](N5CCOCC5)CC4)c3c2c1 [I-20, N,N-dimethyl-4-(((1r,4r)-4-morpholinocyclohexyl)amino)benzo[4,5]thieno[2,3-d]pyrimidine-6-carboxamide]
14 | 100 to 1000 nM | – | – | CCOC(=O)c1ccc2sc3ncnc(N[C@H]4CC[C@H](N5CCOCC5)CC4)c3c2c1 [I-8, Ethyl 4-(((1r,4r)-4-morpholinocyclohexyl)amino)benzo[4,5]thieno[2,3-d]pyrimidine-6-carboxylate]
15 | ≤ 100 nM | ≥ 1000 nM | ≤ 1000 nM | CN(C)[C@H]1CC[C@H](Nc2ncnc3sc4ccc(C(N)=O)cc4c23)CC1 [I-6, 4-(((1r,4r)-4-(dimethylamino)cyclohexyl)amino)benzo[4,5]thieno[2,3-d]pyrimidine-6-carboxamide]
16 | 100 to 1000 nM | – | – | CCNC(=O)c1ccc2sc3ncnc(N[C@H]4CC[C@H](N(C)C)CC4)c3c2c1 [I-17, 4-(((1r,4r)-4-(dimethylamino)cyclohexyl)amino)-N-ethylbenzo[4,5]thieno[2,3-d]pyrimidine-6-carboxamide]
17 | 100 to 1000 nM | ≥ 1000 nM | ≤ 1000 nM | CN[C@H]1CC[C@H](Nc2ncnc3sc4ccccc4c23)CC1 [I-9, (1r,4r)-N1-(benzo[4,5]thieno[2,3-d]pyrimidin-4-yl)-N4-methylcyclohexane-1,4-diamine]
18 | ≤ 100 nM | ≤ 1000 nM | ≤ 1000 nM | c1ccc2c(c1)sc1ncnc(N[C@H]3CC[C@H](N4CCOCC4)CC3)c12 [I-4, N-((1r,4r)-4-morpholinocyclohexyl)benzo[4,5]thieno[2,3-d]pyrimidin-4-amine]
19 | 100 to 1000 nM | – | – | CN(C)[C@H]1CC[C@H](Oc2ncnc3sc4ccccc4c23)CC1 [I-12, (1r,4r)-4-(benzo[4,5]thieno[2,3-d]pyrimidin-4-yloxy)-N,N-dimethylcyclohexanamine]
20 | 1000 to 10000 nM | – | – | CN(C)C(=O)c1ccc2sc3ncnc(N[C@H]4CC[C@H](N(C)C)CC4)c3c2c1 [I-19, 4-(((1r,4r)-4-(dimethylamino)cyclohexyl)amino)-N,N-dimethylbenzo[4,5]thieno[2,3-d]pyrimidine-6-carboxamide]
21 | 1000 to 10000 nM | – | – | NC(=O)Cc1ccc2sc3ncnc(N[C@H]4CC[C@H](N5CCOCC5)CC4)c3c2c1 [I-18, 2-(4-(((1r,4r)-4-morpholinocyclohexyl)amino)benzo[4,5]thieno[2,3-d]pyrimidin-6-yl)acetamide]
22 | 100 to 1000 nM | – | – | N[C@H]1CC[C@H](Nc2ncnc3sc4ccccc4c23)CC1 [I-11, (1r,4r)-N1-(benzo[4,5]thieno[2,3-d]pyrimidin-4-yl)cyclohexane-1,4-diamine hydrochloride]
23 | 100 to 1000 nM | – | – | CNC(=O)c1ccc2sc3ncnc(N[C@H]4CC[C@H](N(C)C)CC4)c3c2c1 [I-14, 4-(((1r,4r)-4-(dimethylamino)cyclohexyl)amino)-N-methylbenzo[4,5]thieno[2,3-d]pyrimidine-6-carboxamide]
